# Strand notation (5' to 3'): a small letter for the sugar, then the base; units joined by * are phosphorothioate-linked, units joined directly phosphodiester-linked; [ ] holds rarer units or linkages, { } end groups; capitals alone tell only the bases. e = 2'-O-(2-methoxyethyl) (MOE); [5mC] = 5-methylcytosine; d = 2'-deoxy (DNA)
# How the values were obtained:
# [1] = tested on: basal vascular permeability; test: Combination of PKK and Factor 12 antisense oligonucleotides on basal vascular permeability (Example 16); assay type: in vivo, mouse; conditions: positive control: PBS + HOE-140 30 μg ip
# Experimental: Mice were treated with varying doses of ISIS 410944, an antisense oligonucleotide targeting Factor 12, and ISIS 482584 in a basal vascular permeability model.
# Group 1 consisted of 8 mice and was treated with PBS administered subcutaneously twice a week for 3 weeks. No other treatment was administered to Group 1 which served as a control group to measure the basal levels of vascular permeability.
# Group 2 consisted of 4 mice and was treated with PBS administered subcutaneously twice a week for 3 weeks. At the end of the treatment period, the mice were intraperitoneally administered 30 μg of HOE-140. Group 2 served as a positive control for inhibition of basal vascular permeability.
# Groups 3, 4, 5, 6, and 7 consisted of 8 mice each and were treated with 2.5 mg/kg, 5 mg/kg, 10 mg/kg, 20 mg/kg, or 40 mg/kg (corresponding to 5 mg/kg, 10 mg/kg, 20 mg/kg, 40 mg/kg, or 80 mg/kg per week), respectively of ISIS 482584 and ISIS 410944 each administered subcutaneously twice a week for 3 weeks. Groups 3-7 served as the experimental treatment groups for examining the effect of ISIS 410944 and ISIS 482584 on basal vascular permeability.
# All the groups were then injected with 30 mg/kg of Evans Blue solution in the tail vein. The mice were sacrificed 30 min after the Evans Blue solution administration and colons, feet, ears, and intestines were harvested.
# The harvested tissues from the feet, colon, intestines, and ears were placed in formamide solution overnight to leach out the Evans Blue dye. The formamide solution containing feet and ear tissue was heated to 55° C. and left overnight. Higher OD values are associated with higher levels of permeability.
# C1-INH mRNA = C1-INH mRNA in liver of mice treated with ISIS 461756 (Example 18); assay type: in vivo, mouse; conditions: liver; all groups ISIS 461756 25 mg/kg/wk; pretreatment PBS or oligonucleotide 80 mg/kg/wk sc 3 weeks
# Experimental: (§1) Vascular permeability induced by ISIS 461756, an antisense oligonucleotide which targets murine C1 inhibitor mRNA, increases vascular permeability in mice and replicates the pathology of hereditary angioedema. The effect of ISIS 482584 on this model was evaluated.
# (§2) One group of 8 mice was treated with 40 mg/kg ISIS 482584 administered subcutaneously twice a week for 3 weeks (weekly dose of 80 mg/kg). A second group of 8 mice was treated with 40 mg/kg of the control oligonucleotide, ISIS 141923, administered subcutaneously twice a week for 3 weeks (weekly dose of 80 mg/kg). A third group of 8 mice was treated with PBS administered subcutaneously twice a week for 3 weeks. On day 14, all the groups were treated with 12.5 mg/kg ISIS 461756 administered subcutaneously twice a week for 3 weeks (weekly dose of 25 mg/kg). A control group of mice was treated with PBS administered subcutaneously twice a week for 3 weeks but was not administered ISIS 461756.
# (§3) At the end of the treatment period, all the groups were injected with 30 mg/kg of Evans Blue solution into the tail vein. The mice were sacrificed 30 min after the Evans Blue solution administration and colons, feet, ears, and intestines were harvested. The liver was also harvested for RNA analysis.
# (§4) RNA was isolated from the liver for RT-PCR analysis of C1-INH and PKK mRNAs. The primer probe set for C1-INH is RTS3218 (forward sequence […], designated herein as SEQ ID NO: 2234; reverse sequence […], designated herein as SEQ ID NO: 2235; probe sequence […], designated herein as SEQ ID NO: 2236). The primer probe set for PKK is RTS3287 (forward sequence […], designated herein as SEQ ID NO: 2237; reverse sequence […], designated herein as SEQ ID NO: 2238; probe sequence […], designated herein as SEQ ID NO: 2239). The results are presented in Table 79 as percent inhibition compared to the PBS control not treated with ISIS 461756.
# PKK mRNA = PKK mRNA in liver of mice treated with ISIS 461756 (Example 18); assay type: in vivo, mouse
# Experimental: as §1, §2, §3, §4
# human PKK mRNA = test: Dose-dependent antisense inhibition of human PKK in HepaRG cells, 0.12-10.00 uM (Example 4); assay type: cell-based; conditions: electroporation, ~16 h
# Experimental: Cells were plated at a density of 20,000 cells per well and transfected using electroporation with 0.12 μM, 0.37 μM, 1.11 μM, 3.33 μM, and 10.00 μM concentrations of antisense oligonucleotide. After a treatment period of approximately 16 hours, RNA was isolated from the cells and PKK mRNA levels were measured by quantitative real-time PCR. Human PKK primer probe set RTS3454 was used to measure mRNA levels. PKK mRNA levels were adjusted according to total RNA content, as measured by RIBOGREEN®. The antisense oligonucleotides were tested in a series of experiments that had similar culture conditions. Results are presented as percent inhibition of PKK, relative to untreated control cells.
# The half maximal inhibitory concentration (IC50) of each oligonucleotide is also presented.
# [2] = C-reactive protein and complement C3 levels in cynomolgus monkeys (Example 8); conditions: cynomolgus monkey plasma, 40 mg/kg sc
# Experimental: Prior to the study, the monkeys were kept in quarantine for a 30-day period, during which the animals were observed daily for general health. The monkeys were 2-4 years old and weighed between 2 and 4 kg. Ten groups of four randomly assigned male cynomolgus monkeys each were injected subcutaneously with ISIS oligonucleotide or PBS. PBS solution or ISIS oligonucleotides at a dose of 40 mg/kg were administered initially with a loading regimen consisting of four doses on the first week of the study (days 1, 3, 5, and 7), followed by a maintenance regimen consisting of once weekly administration starting on Day 14 (weeks 2 to 13). Subcutaneous injections were performed in clock-wise rotations at 4 sites on the back; one site per dose. The injection sites were delineated by tattoo, while sedated using ketamine, and were separated by a minimum of 3 cm.
# To evaluate any inflammatory effect of ISIS oligonucleotides in cynomolgus monkeys, the monkeys were fasted overnight. Approximately, 1.5 mL of blood samples were collected from all the study groups. Blood was collected in tubes without anticoagulant for serum separation. The tubes were kept at room temperature for a minimum of 90 min and then centrifuged at 3,000 rpm for 10 min. C-reactive protein (CRP), which is synthesized in the liver and which serves as a marker of inflammation, was measured using a Toshiba 120FR NEO chemistry analyzer (Toshiba Co., Japan). Complement C3 was also measured similarly, and the data is presented as a percentage of baseline values.
# [3] = Liver function markers in cynomolgus monkeys (Example 8); conditions: cynomolgus monkey plasma, 40 mg/kg sc
compound,measurement,setting,value
"NC(N)=NCCC[C@@H](N)C(=O)N[C@@H](CCCN=C(N)N)C(=O)N1CCC[C@H]1C(=O)N1C[C@H](O)C[C@H]1C(=O)NCC(=O)N[C@@H](Cc1cccs1)C(=O)N[C@@H](CO)C(=O)N1Cc2ccccc2C[C@@H]1C(=O)N1[C@H](C(=O)N[C@@H](CCCN=C(N)N)C(=O)O)C[C@@H]2CCCC[C@@H]21 [HOE-140, Icatibant, reference compound]","OD600 nm of Evans Blue dye, Colon",[1],0.14
same,"OD600 nm of Evans Blue dye, Ears",[1],0.008
same,"OD600 nm of Evans Blue dye, Feet",[1],0.04
same,"OD600 nm of Evans Blue dye, Intestines",[1],0.08
"ISIS 482584: 5-10-5 MOE gapmer targeting murine PKK, GGCATATTGGTTTTTGGAAT; SEQ ID NO: 2244 (antisense eG*eG*e[5mC]*eA*eT*dA*dT*dT*dG*dG*dT*dT*dT*dT*dT*eG*eG*eA*eA*eT)",Percent inhibition of C1-INH mRNA expression compared to the untreated PBS control,C1-INH mRNA,77%
same,Percent inhibition of PKK mRNA expression compared to the untreated PBS control,"PKK mRNA; liver, all groups ISIS 461756 25 mg/kg/wk, pretreatment PBS or oligonucleotide 80 mg/kg/wk sc 3 weeks",78%
same,PKK expression,"PKK mRNA; mouse liver, 40 mg/kg s.c. twice a week for 3 weeks",significantly reduced PKK expression
531231 (eT*eA*eT*e[5mC]*eA*d[5mC]*dT*dG*dT*dA*d[5mC]*dT*dA*dG*dT*eT*eT*e[5mC]*e[5mC]*eT) [compound 531231],percent inhibition of PKK at 0.12 μM,"human PKK mRNA; Table 32, 0.12 μM",23%
same,percent inhibition of PKK at 0.37 μM,"human PKK mRNA; Table 32, 0.37 μM",30%
same,percent inhibition of PKK at 1.11 μM,"human PKK mRNA; Table 32, 1.11 μM",76%
same,percent inhibition of PKK at 3.33 μM,"human PKK mRNA; Table 32, 3.33 μM",89%
same,percent inhibition of PKK at 10.00 μM,"human PKK mRNA; Table 32, 10.00 μM",94%
same,IC50,"human PKK mRNA; Table 32, PKK mRNA",600 nM
same,percent inhibition of PKK at 0.12 μM,"human PKK mRNA; Table 33, 0.12 μM",18%
same,percent inhibition of PKK at 0.37 μM,"human PKK mRNA; Table 33, 0.37 μM",0%
same,percent inhibition of PKK at 1.11 μM,"human PKK mRNA; Table 33, 1.11 μM",36%
same,percent inhibition of PKK at 3.33 μM,"human PKK mRNA; Table 33, 3.33 μM",76%
same,percent inhibition of PKK at 10.00 μM,"human PKK mRNA; Table 33, 10.00 μM",84%
same,IC50,"human PKK mRNA; Table 33, PKK mRNA",2000 nM
Tes Ges mCes Aes Aes Gds Tds mCds Tds mCds Tds Tds Gds Gds mCds Aes Aes Aes mCes Ae [ISIS 546254],C3 (% of baseline),[2],61 % of baseline
same,CRP,[2],0.8 mg/dL
same,ALT,[3],54 IU/L
same,AST,[3],68 IU/L
same,Albumin,[3],3.8 g/dL
